Data published in paper PMC11956017, “Design of Benzyl-triazolopyrimidine-Based NADPH Oxidase Inhibitors Leads to the Discovery of a Potent Dual Covalent NOX2/MAOB Inhibitor” (Journal of Medicinal Chemistry, 2025).
Several values for one entry are separate records, joined by “and”; a condition that tells them apart may be missing. Identical values can stand only once. Entries after “also recorded” stand apart in the source; their conditions may differ.

Tests used:
[1] = system: dehydrogenase domain of csNOX5; experiment: NADPH depletion assay on csNOX5 dehydrogenase domain; format: biochemical, Cylindrospermum stagnale; conditions: 10 μM inhibitor; 1 μM purified protein, 250 μM NADPH
Method: A series of derivatives were synthesized and tested at 10 μM against the dehydrogenase domain of NOX5 from Cylindrospermum stagnale (C. stagnale, CsNOX5; Figure 2B).
The NADPH depletion assay for IC50 determinations was performed as described[10] with modifications for covalent inhibitors, which require longer incubation times. Briefly, the catalytic activity was measured by monitoring the absorbance at 340 nm with a Cary 100 UV–vis spectrophotometer (Varian). A 1 μM portion of purified protein was added in a final volume of 130 μL of 50 mM HEPES pH 7.5 and supplemented with 300 μM FAD. Inhibitors were added at varying concentrations and incubated for 1 h at 25 °C.

csNOX5 dehydrogenase = experiment: Intact protein mass spectrometry of csNOX5 dehydrogenase; format: binding, Cylindrospermum stagnale
Method: Approximately 1 mg mL^-1 protein was incubated with 300 μM FAD and 1 mM 9a at 4 °C for 1 h. A negative control reaction was performed by adding an equal volume of DMSO. Protein was denatured by adding 1% (v/v) formic acid. Chromatographic separation and mass spectrometry analysis were carried out as previously reported.[10] Analyses were carried out by ESI-qTOF-HRMS on an […] qTOF system (Sciex) embedding a Twin Sprayer ESI probe and coupled with an ExcionLC system (Sciex) controlled by SciexOS software v. 3.0.0. The injection volume was 10 μL (10 μg), and chromatographic separation was carried out with a bioZen WidePore C4 column (a 100 mm length, a 2.1 mm diameter, and a 2.6 μm particle size; Phenomenex).

bovine albumin = target: T1, bovine albumin (Bos taurus, UniProt P02769); experiment: Native mass spectrometry of BSA reactivity; format: binding; conditions: BSA 1 µM, compound 5 µM and 20 µM, pH 7.5, 30 minutes
T1 construct: Bovine serum albumin (BSA, Sigma Aldrich, A7030); purchased Sigma Aldrich A7030; host or cells: bovine serum
Method: (§1) Protein samples were buffer-exchanged into 200 mM ammonium acetate (pH 7.5) through dialysis prior to native MS analyses. These samples were directly introduced into the mass spectrometer using gold-coated capillary needles prepared in-house.[63] Data were collected on a Q Exactive UHMR hybrid quadrupole-Orbitrap mass spectrometer (Thermo Fisher) with positive polarity. The instrument parameters used for MS spectra collection were the following: capillary voltage, 1.2 kV; scan range from 1000 to 20,000 m/z; HCD collision energy, 0–100 V; source fragmentation, 0 V; in-source trapping, 0 V. The ion transfer optics was set as follows: injection flatapole, 5 V; interflatapole lens, 4 V; bent flatapole, 2 V; transfer multipole, 0 V. The resolution of the instrument was 17,500 at m/z = 200 (transient time of 64 ms), the nitrogen pressure in the HCD cell was maintained at approximately 4 × 10^–10 mbar, and the source temperature was kept at 100 °C. The noise level was set at 3 rather than the default value of 4.64. Calibration of the instruments was performed using 10 mg/mL solution of cesium iodide in water. Data were analyzed using Xcalibur 3.0 (Thermo Scientific), NaViA,[64] and UniDec software packages.[65]

human MAOB = target: T2, human MAOB (Homo sapiens, UniProt P27338); experiment: Spectrophotometric monitoring of MAOB flavin covalent modification; format: binding
T2 construct: made in house; host or cells: Pichia pastoris
T2 sequence (P27338 1-520): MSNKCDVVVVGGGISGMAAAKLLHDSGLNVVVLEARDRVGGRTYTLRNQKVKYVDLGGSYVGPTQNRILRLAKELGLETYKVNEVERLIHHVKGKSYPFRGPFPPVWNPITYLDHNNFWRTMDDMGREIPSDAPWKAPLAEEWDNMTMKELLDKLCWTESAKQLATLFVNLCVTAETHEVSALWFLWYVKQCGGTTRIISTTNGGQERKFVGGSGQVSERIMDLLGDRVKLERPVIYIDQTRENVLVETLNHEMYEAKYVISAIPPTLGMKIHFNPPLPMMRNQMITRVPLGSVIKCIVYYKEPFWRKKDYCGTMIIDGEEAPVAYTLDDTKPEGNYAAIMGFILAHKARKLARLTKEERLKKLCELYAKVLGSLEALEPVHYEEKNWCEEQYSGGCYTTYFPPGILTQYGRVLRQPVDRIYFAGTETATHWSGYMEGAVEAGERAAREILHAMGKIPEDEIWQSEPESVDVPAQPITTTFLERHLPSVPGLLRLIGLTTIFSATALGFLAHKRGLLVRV
Method: IC50 values on human MAOA and human MAOB were determined using the Amplex Red/horseradish peroxidase coupled assay. […] Measurements were performed using a ClarioStar plate reader (excitation 572 nm and emission 583 nm) (BMG Labtech). IC50 values were obtained by fitting the percentage of inhibition versus log(inhibitor concentration) using GraphPad software 7.0. The covalent modification of the flavin upon the reaction with the propargylamine-containing inhibitors was monitored spectrophotometrically using a diode array UV/visible spectrophotometer (Agilent Technologies). […] The cofactor covalent modification was monitored over time following the shift of the enzyme-bound flavin (peaks at 370 and 456 nm) to 410 nm (ε410 = 23,500 M^–1 cm^–1) (Figure S10).

BV2 cells = experiment: MTT viability assay in BV2 cells; format: cell-based, murine; conditions: 10 μM, LPS/IFN-γ stimulation, 48 h
Method: BV2 murine microglial cells were cultured in DMEM supplemented with 10% heat-inactivated FBS, 100 IU/mL penicillin G, 100 mg/mL streptomycin, and 2.5 mg/mL amphotericin B and grown at 37 °C in 5% CO2 and a humidified atmosphere. […] After 30 min, LPS 100 ng/mL and IFN-γ 20 ng/mL were added to the medium for an additional 48 h.
Cell viability was determined by the MTT assay. Briefly, MTT (dissolved in PBS with a final concentration of 0.5 mg/mL) was added to the medium culture. After 2 h of incubation, the cells were mixed with DMSO and shaken for 10 min. Finally, the absorption of the samples was read by regulating the 570 nm filter as the main wavelength and the 630 nm filter as the referenced wavelength. The blank was subtracted from all samples to obtain pure cellular absorption. Results are expressed as the percentage of cell survival, taking 100% of the cells treated with the vehicle.

human myoglobin = target: T3, human myoglobin (Homo sapiens, UniProt P02144); experiment: Native mass spectrometry of myoglobin reactivity; format: binding; conditions: myoglobin 1 µM, compound 5 µM and 20 µM, pH 7.5, 30 minutes
T3 construct: purchased Sigma Aldrich M6036; host or cells: human cardiac
T3 sequence (P02144 1-154): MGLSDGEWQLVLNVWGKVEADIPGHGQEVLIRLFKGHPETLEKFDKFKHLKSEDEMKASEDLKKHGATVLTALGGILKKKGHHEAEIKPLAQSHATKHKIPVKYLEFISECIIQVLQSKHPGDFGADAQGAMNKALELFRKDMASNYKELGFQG
Method: as §1

[2] = Mass spectrometric analysis of GSH reactivity; conditions: GSH 10 µM and compound 10 µM (1:1), ammonium acetate 200 mM, pH 7.4
Method: Reactivity between 9a and GSH was measured via mass spectrometry on a Q Exactive UHMR hybrid quadrupole-Orbitrap mass spectrometer (Thermo Fisher) with positive polarity. The instrument parameters used for MS spectra collection were the following: capillary voltage, 1.2 kV; scan range from 350 to 2000 m/z; HCD collision voltage, 0 V; source fragmentation, 0 V; in-source trapping, 0 V. The ion transfer optics was set as follows: injection flatapole, 5 V; inner-flatapole lens, 4 V; bent flatapole, 2 V; transfer multipole, 0 V. The resolution of the instrument was 200,000 at m/z = 400, the nitrogen pressure in the HCD cell was maintained at approximately 9.8 × 10^–11 mbar, and the source temperature was kept at 100 °C. Solutions for flow injection analysis were constituted by dissolving each compound in LC-MS-grade MeOH.

T1 sequence (P02769 25-607): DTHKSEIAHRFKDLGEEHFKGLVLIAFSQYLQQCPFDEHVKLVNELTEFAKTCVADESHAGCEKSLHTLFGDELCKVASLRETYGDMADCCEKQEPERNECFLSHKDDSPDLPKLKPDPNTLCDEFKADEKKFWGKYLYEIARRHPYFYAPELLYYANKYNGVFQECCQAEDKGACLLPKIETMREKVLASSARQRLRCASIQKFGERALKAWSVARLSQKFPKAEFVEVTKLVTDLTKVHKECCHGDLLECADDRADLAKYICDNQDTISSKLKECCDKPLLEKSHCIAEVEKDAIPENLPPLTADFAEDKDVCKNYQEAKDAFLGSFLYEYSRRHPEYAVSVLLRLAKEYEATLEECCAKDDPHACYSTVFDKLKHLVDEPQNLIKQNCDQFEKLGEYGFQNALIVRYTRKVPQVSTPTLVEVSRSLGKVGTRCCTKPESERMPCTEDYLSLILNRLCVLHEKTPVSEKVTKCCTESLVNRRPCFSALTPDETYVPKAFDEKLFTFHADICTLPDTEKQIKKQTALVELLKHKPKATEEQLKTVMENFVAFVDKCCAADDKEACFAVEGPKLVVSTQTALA

## CCCNC(=O)c1ccc(Cn2nnc3c(Sc4nc5ccccc5o4)ncnc32)cc1 [Compound 8a, (4-((7-Benzo[d]oxazol-2-yl-thio)-3H-[1,2,3]triazole[4,5-d]pyrimidin-3-yl)methyl)-N-(propyl)benzamide]
[1]
  % INHIBITION csNOX5 DEHYDROGENASE DOMAIN: 95.6 ± 0.1%

## C#CCNC(=O)c1ccc(Cn2nnc3c(Sc4nc5ccccc5o4)ncnc32)cc1 [Compound 8b, (4-((7-Benzo[d]oxazol-2-yl-thio)-3H-[1,2,3]triazole[4,5-d]pyrimidin-3-yl)methyl)-N-(prop-2-in-1-yl)benzamide]
[1]
  % INHIBITION csNOX5 DEHYDROGENASE DOMAIN: 94.6 ± 1.0%

## C#CCN(C)Cc1ccc(Cn2nnc3c(Sc4nc5ccccc5o4)ncnc32)cc1 [Compound 9a, N-(4-((7-(Benzo[d]oxazol-2-ylthio)-3H-[1,2,3]triazolo[4,5-d]pyrimidin-3-yl)methyl)benzyl)-N-methylprop-2-yn-1-amine]
csNOX5 dehydrogenase; 1 mM inhibitor, 4 °C, 1 h, vs DMSO-treated protein
  increase in molecular weight of csNOX5 dehydrogenase after reaction: 290 Da and 290.3 Da
csNOX5 dehydrogenase; intact protein ESI-qTOF-HRMS
  covalent binding to csNOX5 dehydrogenase active-site cysteine: covalent binding
[1]
  % INHIBITION csNOX5 DEHYDROGENASE DOMAIN: 67.3 ± 4.6%
Bovine albumin
  adduct formation with bovine serum albumin: no adduct; also recorded: did not bind
Human MAOB; 5-fold molar excess over 20 μM protein
  covalent flavin adduct with MAOB (absorbance shift to 410 nm): formation of a covalent N-methyl-N-propargylamine-flavin adduct
Human MAOB; after 30 min of incubation
  MAOB cofactor modified at the final time point: 18.4 µM
  calculated inhibited fraction of MAOB: 91.8%
BV2 cells
  BV2 cell viability: negligible effects on cells viability
Human myoglobin
  adduct formation with myoglobin: no adduct formation was detected; also recorded: did not bind
[2]
  adduct formation with glutathione: readily reacted with GSH; also recorded: able to form an adduct with glutathione
